The values that follow come from US9221761B2, “Method for inhibition of deubiquitinating activity” (Vivolux AB, priority 2011, dated 2015).

Usually pIC50 stands for the IC50 on a negative log10 scale, so that one unit is a factor of ten. Low readings indicate a large IC50, high ones a small IC50.

pIC50: −log10 of the molar value.

Test [1] concerns MelJuSo Ub-YFP reporter cell line. As to the kind of experiment: Proteasome inhibition in reporter cell line, YFP accumulation in IncuCyte-FLR. The test is classed as cell-based. The settings on record: YFP accumulation measured for 48 hours; for MeJuSo-UB, lowest effective conc.: Table 2. An excerpt:
Cell culture. MCF7 cells are maintained in MEM/10% fetal calf serum. HCT-116 p53+/+, p53−/−, Bcl-2+/+, PUMA−/− and BAX−/− cells are maintained in McCoy's 5A modified medium/10% fetal calf serum. The HCT-116 p53+/+, p53−/−, PUMA−/− and BAX−/− are generated as described (25). The HCT-116 Bcl-2+/+ cell line was generated by transfecting parental HCT-116 p53+/+ cells with pCEP4 Bcl-2 (Addgene plasmid 16461) (26) and isolating high expression clones. FaDu and LLC3 cells are maintained in DMEM high glucose medium supplemented with 10% fetal calf serum, Na pyruvate, Hepes and non-essential amino acids. 4T1.12B carcinoma cells are maintained in RPMI medium supplemented with 10% fetal calf serum. The proteasome reporter cell line MelJuSo Ub-YFP was generated as described (12). Cells were maintained in Dulbecco's Modified Eagle's Medium/10% fetal calf serum. […] The retinal epithelial cell line was generated as described (28). All cells are maintained at 37° C. in 5% CO2.
The compound of the invention induces proteasome inhibition. The reporter cell line MelJuSo Ub-YFP, which is engineered to accumulate yellow fluorescent protein (YFP) upon proteasome inhibition (12), was used for compound evaluation. The accumulation of YFP was measured for 48 hours in an IncuCyte-FLR system (Essen Bioscience, Essen, UK), which is an automated fluorescence microscope. Numbers of positive cells per field were used as a measure of proteasome inhibition.

Test [2] has as its system HCT116. As to the kind of experiment: FMCA (Fluorometric Microculture Cytotoxicity Assay) cytotoxicity. The test is classed as cell-based. The settings on record: 72 hours of continuous compound exposure. As for the experimental part:
FIGS. 1a to 1o are diagrams illustrating induction of dose-dependent cytotoxicity after 72 hours of continuous compound exposure to the reporter cell line HCT-116 by embodiments of the compound of the invention, as measured FMCA (Fluorometric Microculture Cytotoxicity Assay), as well as absence of such induction by structurally related compounds not comprised by the invention. Treated cells were compared to untreated controls (survival index);
Determination of cell apoptosis and viability. For determination of apoptosis parental HCT-116 p53+/+ cells are treated with the increasing doses of the compound of the invention for 24 h. […] HCT-116 cells are seeded in 96-well microtiter plates at 10,000 cells per well and incubated overnight. Cells are treated with indicated drug for 24 h. At the end of the incubation period, NP40 is added to the tissue culture medium to 0.1% and 25 μl of the content of each well was assayed using the M30-Apoptosense® ELISA as previously described (31). Cell viability is determined by measuring acid phosphatase activity or using the FMCA method (32). For the acid phosphatase activity cells are seeded at 5000 cells per well in 96-well culture plates and incubated for 12 h at 37° C. Compounds are added to the cells in growth media and incubated for 72 h at 37° C. Cells are washed with 200 μl warm PBS. 100 μl of para-nitrophenyl phosphate (pNPP, 2 mg/ml) in Na acetate buffer pH 5 (NaAc 0.1 M, 0.1% Triton-X-100) is added per well. Cells are incubated for 2 h after which reaction was stopped by addition of 1N NaOH. Absorbance is measured at 405 nm. The dose-dependent cytotoxicity of a number of embodiments of the compound of the invention is illustrated in FIGS. 1a-1o.
For the FMCA assay cells are seeded in the drug-prepared 384-well plates using the pipetting robot Precision 2000 (Bio-Tek Instruments Inc., Winooski, Vt.). The plates are incubated for 72 h and then transferred to an integrated HTS SAIGAN Core System consisting of an ORCA robot (Beckman Coulter) with CO2 incubator (Cytomat 2C, Kendro, Sollentuna, Sweden), dispenser module (Multidrop 384, Titertek, Huntsville, Ala.), washer module (ELx 405, Bio-Tek Instruments Inc), delidding station, plate hotels, barcode reader (Beckman Coulter), liquid handler (Biomek 2000, Beckman Coulter) and a multipurpose reader (FLUOstar Optima, BMG Labtech GmbH, Offenburg, Germany) for automated FMCA. Survival index (SI) is defined as the fluorescence of test wells in percentage of controls with blank values subtracted.
FIGS. 3b, 3d, 3f are diagrams illustrating the cytotoxicity of compounds of the invention nos. 1546, 1547, and 1570 with a 7-membered ring moiety in comparison to structurally corresponding compounds not comprised by the invention with a 6-membered ring moiety. Their induction of dose-dependent cytotoxicity was determined after 72 hours of continuous compound exposure to the reporter cell line HCT-116. Treated cells were compared with untreated controls. Cytotoxicity is visualized as survival index (SI) over the range of about 90% SI to about 0% SI in dependence on compound concentration.

For the molecule `O=C1/C(=C/c2ccccc2)CCNC/C1=C\c1ccccc1` [Compound 1516, (3E,5E)-3,5-Bis(phenylmethylidene)azepan-4-one], the “MeJuSo-UB, IncuCyte lowest effective conc.” value in test [1] (Table 1) amounted to 1.2 µM. `CN1CCC(=Cc2cccc([N+](=O)[O-])c2)C(=O)C(=Cc2cccc([N+](=O)[O-])c2)C1` [Compound 1620]: the “MeJuSo-UB, IncuCyte lowest effective conc. (μM)” value in test [1] (Table 1) is recorded as “no effect”. In test [2] (Table 1), the pIC50 is < 4.49.

For the molecule `COc1ccc(/C=C2\CNCC/C(=C\c3ccc([N+](=O)[O-])cc3)C2=O)cc1` [Compound 1575, (3E,5E)-3-[(4-methoxyphenyl)methylidene]-5-[(4-nitrophenyl)methylidene]azepan-4-one], the “MeJuSo-UB, IncuCyte lowest effective conc.” value in test [1] (Table 1) is 1 µM. In test [2] (Homo sapiens, HCT-116, Table 1), this molecule showed a pIC50 of 5.68. For `CN1CC/C(=C\c2ccc([N+](=O)[O-])cc2)C(=O)/C(=C/c2ccc([N+](=O)[O-])cc2)C1` [Compound 1563, (3E,5E)-1-methyl-3,5-bis[(4-nitrophenyl)methylidene]azepan-4-one], in that order: 0.5 µM and 5.82. On to `COc1ccc(C=C2CNCCC(=Cc3ccc(F)cc3)C2=O)cc1` [Compound 1576], for which, in test [1] (Table 1), the “MeJuSo-UB, IncuCyte lowest effective conc.” value is 8 µM. This molecule also showed a pIC50 in test [2] (Table 1) of 5.80.

In the case of `CC(=O)OCCC(=O)N1CCC(=Cc2ccc(Cl)cc2)C(=O)C(=Cc2ccc(Cl)cc2)C1` [Compound 1633], in test [1], the “MeJuSo-UB, lowest effective conc.” value came to 4 µM. This molecule gave a pIC50 in test [2] (Table 2) of 5.66. Taken in the same sequence, the figures for “(3E,5E)-1-acetyl-5-[(4-fluorophenyl)methylidene]-3-[(4-ethoxyphenyl)methylidene]azepan-4-one [Compound 1579]” were 8 µM and 5.23. As for `O=C1C(=Cc2ccc(Cl)cc2)CCN(C(=O)C2CCC2)CC1=Cc1ccc(Cl)cc1` [Compound 1527], the “MeJuSo-UB, lowest effective conc.” value in test [1] amounted to 2 µM. In the case of `CC(=O)N1CCC(=Cc2cc(F)c(F)c(F)c2)C(=O)C(=Cc2cc(F)c(F)c(F)c2)C1` [Compound 1629], the “MeJuSo-UB, lowest effective conc.” value in test [1] came to 1 µM. The same molecule had a pIC50 in test [2] (Table 2) of 6.22.

Turning to `CN1CCC(=Cc2ccc(F)cc2)C(=O)C(=Cc2ccc(F)cc2)C1` [Compound 1564], in test [1] (Table 1), the “MeJuSo-UB, IncuCyte lowest effective conc.” value is 16 µM. In test [2] (Table 1), this molecule showed a pIC50 of 6.05.

As for `O=C(O)C(F)(F)F.O=C1/C(=C/c2ccc([N+](=O)[O-])cc2)CCN(C(=O)[C@H]2CCCN2)C/C1=C\c1ccc([N+](=O)[O-])cc1` [Compound 1505, (2R)-2-{[(3E,5E)-3,5-bis[(4-nitrophenyl)methylidene]-4-oxoazepan-1-carbonyl}pyrrolidinium trifluoroacetate], the pIC50 in test [2] (Table 2) was 5.28. Consider `O=C1/C(=C/c2cccc([N+](=O)[O-])c2)CCNC/C1=C\c1ccccc1` [Compound 1560, (3E,5E)-5-[(3-nitrophenyl)methylidene]-3-(phenylmethylidene)azepan-4-one], for which the pIC50 in test [2] (Homo sapiens, HCT-116, Table 1) is 6.00. For the molecule `CN1CCC(=Cc2cccc([N+](=O)[O-])c2)C(=O)C(=Cc2cccc([N+](=O)[O-])c2)C1` [Compound 1566], the “MeJuSo-UB, IncuCyte lowest effective conc.” value in test [1] (Table 1) is 0.5 µM. Also, the pIC50 in test [2] (Table 1) is 5.64. Turning to `O=C1C(=Cc2ccc(F)c(C(F)(F)F)c2)CCNCC1=Cc1ccc(F)c(C(F)(F)F)c1` [Compound 1622], the “MeJuSo-UB, IncuCyte lowest effective conc.” value in test [1] (Table 1) was determined as 0.5 µM. This molecule also showed a pIC50 in test [2] (Table 1) of 6.10. Take `CCOc1cc(CC(=O)N2CCC(=Cc3ccc(Cl)cc3)C(=O)C(=Cc3ccc(Cl)cc3)C2)ccc1O` [Compound 1639]: in test [1], the “MeJuSo-UB, lowest effective conc.” value was determined as 1 µM. In test [2] (Table 2), this molecule showed a pIC50 of 5.92. `CN1CCC(=Cc2ccc(F)c([N+](=O)[O-])c2)C(=O)C(=Cc2ccc(F)c([N+](=O)[O-])c2)C1` [Compound 1565]: the “MeJuSo-UB, IncuCyte lowest effective conc.” value in test [1] (Table 1) turned out to be 0.5 µM. In addition, in test [2] (Table 1), the pIC50 is 5.82. For `CN1CCC(=Cc2ccc(C(F)(F)F)cc2)C(=O)C(=Cc2ccc(C(F)(F)F)cc2)C1` [Compound 1617], in that order: 1 µM and 5.80. Taken in the same sequence, the figures for `O=C1C(=Cc2ccc(F)cc2)CCNCC1=Cc1ccc(F)cc1` [Compound 1561] were 1 µM and 6.00. Regarding `COc1ccc(C=C2CN(C(C)=O)CCC(=Cc3ccc([N+](=O)[O-])cc3)C2=O)cc1` [Compound 1581], the “MeJuSo-UB, lowest effective conc.” value in test [1] amounted to 8 µM. The molecule also had a pIC50 in test [2] (Table 2) of 5.14. Taken in the same sequence, the figures for `O=C1C(=Cc2cc(F)c(F)c(F)c2)CCN(C(=O)Cc2cccnc2)CC1=Cc1cc(F)c(F)c(F)c1` [Compound 1650] were 1 µM and 5.72.

For `O=C1C(=Cc2ccc(C(F)(F)F)cc2)CCN(C(=O)Cc2cccnc2)CC1=Cc1ccc(C(F)(F)F)cc1` [Compound 1641], the “MeJuSo-UB, lowest effective conc.” value in test [1] is 2 µM. Moreover, in test [2] (Table 2), the pIC50 is 5.57.

As for `CC(=O)OCC(=O)N1CC/C(=C\c2cc(F)c(F)c(F)c2)C(=O)/C(=C/c2cc(F)c(F)c(F)c2)C1` [Compound 1651], the “MeJuSo-UB, lowest effective conc.” value in test [1] came to 0.5 µM. For the same molecule, in test [2] (Table 2), the pIC50 is 6.10. Take `CN1CCC(=Cc2ccc(F)c(C(F)(F)F)c2)C(=O)C(=Cc2ccc(F)c(C(F)(F)F)c2)C1` [Compound 1609]: the “MeJuSo-UB, IncuCyte lowest effective conc.” value in test [1] (Table 1) turned out to be 1 µM. For the same molecule, in test [2] (Table 1), the pIC50 was 5.85. On to `CC(=O)N1CCC(=Cc2ccc([N+](=O)[O-])cc2)C(=O)C(=Cc2ccc([N+](=O)[O-])cc2)C1` [Compound 1567], for which, in test [1], the “MeJuSo-UB, lowest effective conc.” value was 0.5 µM. This molecule also showed a pIC50 in test [2] (Table 2) of 6.22.

For the molecule `CN1CCC(=Cc2ccc(Cl)cc2)C(=O)C(=Cc2ccc(F)cc2)C1` [Compound 1589], the “MeJuSo-UB, IncuCyte lowest effective conc.” value in test [1] (Table 1) turned out to be 1 µM. In addition, in test [2] (Table 1), the pIC50 was 5.60. For `CN1CCC(=Cc2ccc(F)c(C#N)c2)C(=O)C(=Cc2ccc(F)c(C#N)c2)C1` [Compound 1618], in that order: 0.5 µM and 5.82. As to `O=C(O)C(F)(F)F.O=C1/C(=C/c2ccc([N+](=O)[O-])cc2)CCN(C(=O)[C@H]2CCCN2)C/C1=C\c1ccc([N+](=O)[O-])cc1` [Compound 1505], the “MeJuSo-UB, lowest effective conc.” value in test [1] was determined as 16 µM. `O=C1C(=Cc2cccc([N+](=O)[O-])c2)CCNCC1=Cc1cccc([N+](=O)[O-])c1` [Compound 1535] had a pIC50 in test [2] (Table 1) of 5.23. For `O=C1/C(=C/c2ccc(Cl)cc2)CCNC/C1=C\c1ccc(Cl)cc1` [Compound 1518, (3E,5E)-3,5-bis[(4-chlorophenyl)methylidene]azepan-4-one], the “MeJuSo-UB, IncuCyte lowest effective conc.” value in test [1] (Table 1) was 1.6 µM. Molecule `O=C1C(=Cc2ccc([N+](=O)[O-])cc2)CCNCC1=Cc1ccc([N+](=O)[O-])cc1` [Compound 1537] gave a pIC50 in test [2] (Table 1) of 5.39. As for `O=C1C(=Cc2ccccc2[N+](=O)[O-])CCNCC1=Cc1ccccc1[N+](=O)[O-]` [Compound 1536], in test [2] (Table 1), the pIC50 is 5.16.
